Test results as given in patent US20140120184A1, “ARGON-BASED INHALABLE GASEOUS MEDICINAL PRODUCT FOR THE TREATMENT OF NEUROINTOXICATIONS” (Air Liquide Sante (International), priority 2003, published 2014).

What was measured:
Format in all cases: in vivo, Sprague-Dawley rats
[1] = Overall and qualitative evaluation of the gas-treated rats (neurotoxic effect, behaviour) during the sensitization protocol; details: conclusion from locomotor and righting activity of the gas-exposed rats
Description: (§1) To do this, adult male Sprague-Dawley rats that weighed approximately 220 g when they arrived in the laboratory were used. Throughout the study, the animals were placed under standard animalhouse conditions, in groups of 8, so as to avoid the appearance of a stress reaction subsequent to isolation. They had water and food ad libitum.
(§2) For 3 consecutive days (from D1 to D3), 8 groups of animals (8 rats per group) were administered intraperitoneally (i.p.) either D-amphetamine (amph: 1 mg/ml/kg), or a saline solution (saline: 1 ml/kg) for the control animals. […]
(§3) The locomotor activity and the righting activity of the animals were evaluated at D6, after an i.p. injection of a saline solution (1 ml/kg) in order to determine the actual effects of the treatments administered with the various gases and mixtures of gas, and on D7 after an i.p. administration of D-amphetamine (1 mg/ml/kg) in order to evaluate the effects of the gases and mixtures of gas on sensitization to D-amphetamine. […]

[2] = test system: sensitization to D-amphetamine; assay: Locomotor activity on D7 after D-amphetamine challenge (photoelectric cell actimetry) in the D-amphetamine sensitization protocol; details: rats given D-amphetamine 1 mg/kg i.p. D1-D3, each injection followed by 3 h gas exposure, versus sensitized rats treated with air
Description: as §1, §2, §3
(§4) The results obtained (see FIGS. 1 and 2) are expressed as the mean±the standard error of the mean. […]

[3] = test system: sensitization to D-amphetamine; assay: Stereotypic righting activity on D7 after D-amphetamine challenge (photoelectric cell actimetry) in the D-amphetamine sensitization protocol; details: rats given D-amphetamine 1 mg/kg i.p. D1-D3, each injection followed by 3 h gas exposure, versus sensitized rats treated with air
Description: as §1, §2, §3, §4

## argon [argon at 75 vol %]
[1]
  neurotoxic effect: without any neurotoxic effect being observed
[2]
  effect on the locomotor hyperactivity inherent to the development of sensitization to D-amphetamine: total inhibitory effect
[3]
  effect on the righting activity corresponding to the development of the sensitization to D-amphetamine: inhibitory effect
